Source: patent US9131690B2, “Macrocyclic picolinamides as fungicides” (Dow AgroSciences LLC, priority 2012, dated 2015)
Like-named read-outs stand apart in the source and are kept apart here.

Key:
[1] = system: Puccinia triticina. Synonym: Puccinia recondite f. sp. tritici; experiment: Fungicidal activity: Wheat Brown Rust (PUCCRT), wheat plants variety Yuma; assay type: in vivo; set-up: key to PUCCRT 3DC Disease Control: A: 50-100; B: More than 0-Less than 50; C: Not Tested; D: No activity noticed in this bioassay; conditions: for pest or weed control at 100 ppm: Puccinia triticina; for PUCCRT 3DC Disease Control: 100 ppm
Description: Evaluation of Fungicidal Activity: Wheat Brown Rust (Puccinia triticina. Synonym: Puccinia recondite f. sp. tritici; Bayer Code PUCCRT) Wheat plants (variety Yuma) were grown from seed in a greenhouse in 50% mineral soil/50% soil-less Metro mix until the first leaf was fully emerged, with 7-10 seedlings per pot. These plants were inoculated with an aqueous spore suspension of Puccinia recondite f. sp. tritici either prior to or after fungicide treatments. After inoculation the plants were kept in 100% relative humidity overnight to permit spores to germinate and infect the leaf. The plants were then transferred to a greenhouse set at 24 C for disease to develop.

[2] = system: Mycosphaerella graminicola; Anamorph: Septoria tritici; experiment: Fungicidal activity: Leaf Blotch of Wheat (SEPTTR), wheat plants variety Yuma; assay type: in vivo; set-up: key to SEPTTR 3DC Disease Control: A: 50-100; B: More than 0-Less than 50; C: Not Tested; D: No activity noticed in this bioassay; conditions: for pest or weed control at 100 ppm: Zymoseptoria tritici
Description: Evaluation of Fungicidal Activity: Leaf Blotch of Wheat (Mycosphaerella graminicola; Anamorph: Septoria tritici; Bayer Code […]) Wheat plants (variety Yuma) were grown from seed in a greenhouse in 50% mineral soil/50% soil-less Metro mix until the first leaf was fully emerged, with 7-10 seedlings per pot. These plants were inoculated with an aqueous spore suspension of Septoria tritici either prior to or after fungicide treatments. After inoculation the plants were kept in 100% relative humidity (one day in a dark dew chamber followed by two to three days in a lighted dew chamber) to permit spores to germinate and infect the leaf. The plants were then transferred to a greenhouse at 20° C. for disease to develop.

[3] = 24 h, 1 Day Protectant, read-out: PUCCRT 1DP Disease Control
[4] = 72 h, 3 Day Curative, read-out: PUCCRT 3DC Disease Control
[5] = 24 h, 1 Day Protectant, read-out: SEPTTR 1DP Disease Control
[6] = 72 h, 3 Day Curative, read-out: SEPTTR 3DC Disease Control

SMILES | melting point | pest or weed control at 100 ppm [1, 3] | pest or weed control at 100 ppm [1, 4] | pest or weed control at 100 ppm [2, 5] | pest or weed control at 100 ppm [2, 6] | SEPTTR 3DC Disease Control ([2]; 100 ppm, 3 Day Curative) | PUCCRT 3DC Disease Control ([1]; 3 Day Curative)
COc1ccnc(C(=O)N[C@H]2COC(=O)[C@H](Cc3ccc(F)cc3)[C@@H](OC(=O)C(C)C)[C@H](C)OC2=O)c1O [Compound 1, (3S,6S,7R,8R)-8-(4-fluorobenzyl)-3-(3-hydroxy-4-methoxypicolinamido)-6-methyl-4,9-dioxo-1,5-dioxonan-7-yl isobutyrate] | 208 to 210 °C | 50 to 100% | 0 to 50% | 50 to 100% | 0 to 50% | – | –
COc1ccnc(C(=O)N[C@H]2COC(=O)[C@H](Cc3ccc(C)cc3)[C@@H](OC(=O)C(C)C)[C@H](C)OC2=O)c1O [Compound 4] | 175 to 179 °C | 50 to 100% | 0 to 50% | 50 to 100% | 0 to 50% | – | –
COc1ccnc(C(=O)N[C@H]2COC(=O)[C@H](CSc3ccccn3)[C@@H](OC(=O)C(C)C)[C@H](C)OC2=O)c1O [Compound 65, (3S,6S,7R,8R)-3-(3-hydroxy-4-methoxypicolinamido)-6-methyl-4,9-dioxo-8-((pyridin-2-ylthio)methyl)-1,5-dioxonan-7-yl isobutyrate] | 148 to 150 °C | 50 to 100% | 0 to 50% | 50 to 100% | 0 to 50% | – | –
COc1ccnc(C(=O)N[C@H]2COC(=O)[C@H](Cc3ccc(C(F)(F)F)cc3)[C@@H](OC(=O)C(C)C)[C@H](C)OC2=O)c1OC(C)=O [Compound 67] | 127 to 134 °C | 50 to 100% | 50 to 100% | 0 to 50% | – | D | –
COc1ccnc(C(=O)N[C@H]2COC(=O)[C@H](Cc3cccc(-c4ccccc4)c3)[C@@H](OC(=O)C(C)C)[C@H](C)OC2=O)c1O [Compound 13] | 182 to 186 °C | 50 to 100% | 0 to 50% | 50 to 100% | 0 to 50% | – | –
COc1ccnc(C(=O)N[C@H]2COC(=O)[C@H](CCOC(=O)c3ccc(-c4ccccc4)cc3)[C@@H](OC(=O)C(C)C)[C@H](C)OC2=O)c1O [Compound 40] | 178 to 179 °C | 50 to 100% | – | 50 to 100% | 0 to 50% | – | D
COc1ccnc(C(=O)N[C@H]2COC(=O)[C@H](Cc3cccc(-c4ccccc4)c3)[C@@H](OC(=O)C(C)C)[C@H](C)OC2=O)c1OCOC(=O)C(C)C [Compound 25] | 55 to 68 °C | 50 to 100% | 50 to 100% | 50 to 100% | 0 to 50% | – | –
COc1ccnc(C(=O)N[C@H]2COC(=O)[C@H](CC(F)F)[C@@H](OC(=O)C(C)C)[C@H](C)OC2=O)c1O [Compound 52, (3S,6S,7R,8R)-8-(2,2-difluoroethyl)-3-(3-hydroxy-4-methoxypicolinamido)-6-methyl-4,9-dioxo-1,5-dioxonan-7-yl isobutyrate] | 195 to 196 °C | 50 to 100% | 0 to 50% | 50 to 100% | 0 to 50% | – | –
CC[C@H]1C(=O)OC[C@H](NC(=O)c2nccc(OC)c2OC(C)=O)C(=O)O[C@@H](C)[C@@H]1OC(=O)C(C)C [Compound 69] | 158 to 161 °C | 50 to 100% | 50 to 100% | 50 to 100% | 50 to 100% | – | –
COc1ccnc(C(=O)N[C@H]2COC(=O)[C@H](CCOS(C)(=O)=O)[C@@H](OC(=O)C(C)C)[C@H](C)OC2=O)c1O [Compound 56, (3S,6S,7R,8R)-3-(3-hydroxy-4-methoxypicolinamido)-6-methyl-8-(2(methylsulfonyloxy)ethyl)-4,9-dioxo-1,5-dioxonan-7-yl isobutyrate] | 153 to 155 °C | 50 to 100% | 0 to 50% | 0 to 50% | 0 to 50% | – | –
COc1ccnc(C(=O)N[C@H]2COC(=O)[C@H](CCc3ccc(F)cc3)[C@@H](OC(=O)C(C)C)[C@H](C)OC2=O)c1O [Compound 58] | 142 to 144 °C | 50 to 100% | 50 to 100% | 50 to 100% | 0 to 50% | – | –
COc1ccnc(C(=O)N[C@H]2COC(=O)[C@H](Cc3cncnc3)[C@@H](OC(=O)C(C)C)[C@H](C)OC2=O)c1O [Compound 14] | 169 to 175 °C | 50 to 100% | 50 to 100% | 0 to 50% | 0 to 50% | – | –
CCC[C@H]1C(=O)OC[C@H](NC(=O)c2nccc(OC)c2O)C(=O)O[C@@H](C)[C@@H]1OC(=O)C(C)C [Compound 64] | 165 to 168 °C | 50 to 100% | 0 to 50% | 50 to 100% | 50 to 100% | – | –
COc1ccnc(C(=O)N[C@H]2COC(=O)[C@H](Cc3cccnc3)[C@@H](OC(=O)C(C)C)[C@H](C)OC2=O)c1OCOC(=O)C(C)C [Compound 23] | 171 to 174 °C | 50 to 100% | 50 to 100% | 0 to 50% | 0 to 50% | – | –
COc1ccnc(C(=O)N[C@H]2COC(=O)[C@H](CC3CCCCC3)[C@@H](OC(=O)C(C)C)[C@H](C)OC2=O)c1O [Compound 61, (3S,6S,7R,8R)-8-(cyclohexylmethyl)-3-(3-hydroxy-4-methoxypicolinamido)-6-methyl-4,9-dioxo-1,5-dioxonan-7-yl isobutyrate] | 188 to 189 °C | 50 to 100% | 0 to 50% | 50 to 100% | 50 to 100% | – | –
COc1ccnc(C(=O)N[C@H]2COC(=O)[C@H](Cc3cccc(C(F)(F)F)c3)[C@@H](OC(=O)C(C)C)[C@H](C)OC2=O)c1O [Compound 16] | 188 to 190 °C | 50 to 100% | 0 to 50% | 50 to 100% | 0 to 50% | – | –
COc1ccnc(C(=O)N[C@H]2COC(=O)[C@H](CCOC(=O)c3ccc4c(c3)OCO4)[C@@H](OC(=O)C(C)C)[C@H](C)OC2=O)c1O [Compound 39] | 159 to 161 °C | 50 to 100% | 0 to 50% | 50 to 100% | 0 to 50% | – | –
COc1ccnc(C(=O)N[C@H]2COC(=O)[C@H](CCOC=O)[C@@H](OC(=O)C(C)C)[C@H](C)OC2=O)c1O [Compound 51, (3S,6S,7R,8R)-8-(2-(formyloxy)ethyl)-3-(3-hydroxy-4-methoxypicolinamido)-6-methyl-4,9-dioxo-1,5-dioxonan-7-yl isobutyrate] | 103 to 105 °C | 50 to 100% | – | 0 to 50% | 0 to 50% | – | D
COc1ccnc(C(=O)N[C@H]2COC(=O)[C@H](CCc3cccnc3)[C@@H](OC(=O)C(C)C)[C@H](C)OC2=O)c1O [Compound 59] | 169 to 170 °C | 50 to 100% | 0 to 50% | 0 to 50% | 0 to 50% | – | –
